# Measurements as given in PubChem BioAssay (NCI).
# Where “and” joins values, the source holds several entries; their conditions need not be identical. Identical values can stand only once.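 Test compounds were applied to cells in 96-well plates for 48 hours at 5 doses. GI50 is the concentration that inhibits growth by half. TGI is the concentration that stops growth completely.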
# Columns and labels:
# Assay in all cases: NCI tumour cell line growth inhibition, 48 h
# OVCAR-3 ovarian = tested on: OVCAR-3 ovarian
# MCF7 breast = tested on: MCF7 breast
# MOLT-4 leukemia = tested on: MOLT-4 leukemia
# PC-3 prostate = tested on: PC-3 prostate
# SF-295 CNS = tested on: SF-295 CNS
# SNB-19 CNS = tested on: SNB-19 CNS
# NCI-H460 lung = tested on: NCI-H460 lung
# RXF 393 renal = tested on: RXF 393 renal
# NCI-H522 lung = tested on: NCI-H522 lung
# HCC-2998 colon = tested on: HCC-2998 colon
Compound,TGI (OVCAR-3 ovarian) [µM],TGI (MCF7 breast),TGI (MOLT-4 leukemia) [µM],TGI (PC-3 prostate),TGI (SF-295 CNS),TGI (SNB-19 CNS) [µM],TGI (NCI-H460 lung),TGI (RXF 393 renal) [µM],TGI (NCI-H522 lung) [µM],GI50 (OVCAR-3 ovarian) [µM],GI50 (HCC-2998 colon) [µM],TGI (HCC-2998 colon),GI50 (MOLT-4 leukemia) [µM],GI50 (PC-3 prostate),GI50 (SF-295 CNS) [µM],GI50 (SNB-19 CNS) [µM],GI50 (NCI-H460 lung) [µM],GI50 (RXF 393 renal) [µM],GI50 (NCI-H522 lung) [µM],GI50 (MCF7 breast) [µM]
O=C(O)CNc1ccc(Cl)c(Cl)c1,82.4,38.7 µM,> 100,76 µM,75.9 µM,> 100,69.8 µM,> 100,38,,,,,,,,,,,
Cc1ccc2[nH]c3c(c2c1)N=c1ccccc1=NO3,> 100,,> 100,> 100 µM,84.9 µM,> 100,> 100 µM,> 100,> 100,25.8,81.7,> 100 µM,> 100,57 µM,23.8,32.6,45.9,47.6,26,
CC(C)(CN1CCOCC1)C(=O)/C=C/c1ccc(/C=C/C(=O)C(C)(C)CN2CCOCC2)cc1,2.46,,0.694,,4.63 µM,,19.4 µM,3.45,0.928,,,3.26 µM,,,,,,,,
Cc1cc(Br)cc(C)c1NC(=O)C(=O)C(C(=O)c1ccncc1)C1OC(=O)c2ccccc21 (stereo unspecified),> 100,,> 100,,,> 100,> 100 µM,> 100,> 100,,,> 100 µM,,,,,,,,
Cc1c(NC(=O)CCl)c(=O)oc2c(C)c3occc(=O)c3cc12,,66.2 µM,17.9,,25.2 µM,33.6,27.5 µM,,,,,32.8 µM,,,,,,,,
NCCOCn1cc(Cc2cccc(OCc3ccccc3)c2)c(=O)[nH]c1=O,> 100,,> 100,,> 100 µM,> 100,> 100 µM,,,,,> 100 µM,,,,,,,,
S=c1nc(C(c2ccccc2)c2ccccc2)[nH][nH]1,> 100,,> 100,,> 100 µM,> 100,> 100 µM,> 100,> 100,,,> 100 µM,,,,,,,,
O=c1/c(=C/c2c(O)ccc3ccccc23)sc2nc3ccccc3n12,> 100,,,,> 100 µM,> 100,> 100 µM,> 100,> 100,,,> 100 µM,,,,,,,,
O=c1nc(NC(c2ccccc2)(c2ccccc2)c2ccccc2)ccn1CCCl,27.6,,42.3,,42.9 µM,28.9,36.4 µM,30.8,41.4,,,28 µM,,,,,,,,
CSC(=Nc1ccccc1Cl)NC(=O)c1ccc(Br)cc1,> 100,,54.9,,> 100 µM,> 100,> 100 µM,> 100,> 100,,,> 100 µM,,,,,,,,
Cc1cn(CCC(N)C(=O)O)c(=O)[nH]c1=O (stereo unspecified),> 100,> 100 µM,> 100,> 100 µM,> 100 µM,> 100,> 100 µM,> 100,> 100,,,,,,,,,,,
O=C(O)/C=C/c1ccc[c]([Sb](=[O])([OH])[OH])c1,> 100,,> 100,> 100 µM,> 100 µM,> 100,> 100 µM,> 100,> 100,> 100,> 100,> 100 µM,> 100,> 100 µM,> 100,> 100,> 100,> 100,> 100,
CCO/C(CCn1[nH]c(=O)c(Cl)c(Cl)c1=O)=N\NC(=O)C(=O)NN,> 100,,> 100,,> 100 µM,> 100,> 100 µM,> 100,> 100,,,> 100 µM,,,,,,,,
Cc1cc(C)nc(NS(=O)(=O)c2ccc(Nc3c4ccccc4nc4c(C(=O)Nc5ccc(S(=O)(=O)Nc6cc(C)on6)cc5)ccc(Cl)c34)cc2)n1,31.3,,49.1,,44.8 µM,48.9,61.3 µM,32.7,51.4,,,32.6 µM,,,,,,,,
O=C1NC(=O)C(=Cc2c3ccccc3cc3ccccc23)C(=O)N1,,,> 100,,,> 100,> 100 µM,> 100,> 100,,,,,,,,,,,
CCCCCCCCCCCC[N+](C)(C)Cc1ccccc1,4.02,7.7 µM,5.4,3.25 µM,12.2 µM,7.12,12.7 µM,,3.95,1.71,,,2.18,0.49 µM,2.82,2.11,3.42,,1.53,2.01
CC(=O)O[C@@]12CO[C@@H]1C[C@H](O)[C@@]1(C)C(=O)[C@H](O)C3=C(C)[C@@H](OC(=O)[C@H](O)[C@@H](NC(=O)OC(C)(C)C)c4ccccc4)C[C@@](O)([C@@H](OC(=O)c4ccccc4)C12)C3(C)C (stereo partly specified),,50 µM and 33.5 µM,52.6,50 µM and 80.8 µM,50 µM and 16.8 µM,> 100,20.1 µM and > 100 µM,,52.3,< 0.005,< 0.005,0.00872 µM and 0.0429 µM,0.0194,< 0.005 µM and 0.0218 µM,0.016,0.031,< 0.005,,,< 0.005
Cc1ccc(NC(=O)C(=O)C(C(=O)c2ccc3ccccc3c2)C2OC(=O)c3ccccc32)c(C)c1 (stereo unspecified),31.5,,23.7,,,,25.5 µM,22.5,31.3,,,21.1 µM,,,,,,,,
CC(C)=O.O=C([O-])C(F)(F)F.O=C([O-])C(F)(F)F.O=C([O-])C(F)(F)F.O=C([O-])C(F)(F)F.[Rh+2].[Rh+2],> 100,,> 100,,> 100 µM,> 100,,> 100,,> 100,> 100,> 100 µM,15.4,,> 100,60.4,,> 100,,
COC(NC(N)=O)C(=O)O (stereo unspecified),> 100,> 100 µM,> 100,> 100 µM,> 100 µM,> 100,> 100 µM,> 100,> 100,,,,,,,,,,,
